Measurements published in ChEMBL document CHEMBL4382193, “Discovery of Potent Irreversible Pan-Fibroblast Growth Factor Receptor (FGFR) Inhibitors” (J Med Chem, 2018).
Each block holds one compound with its values, some of them ahead of it. Calls of active or inactive are those of the source. The rule behind the calls is not given here.

Legend:
NCI-H1581 [1] = experiment: cells; conditions: Homo sapiens, NCI-H1581, 72 h
Description: Antiproliferative activity against FGFR1 amplified human NCI-H1581 cells after 72 hrs by CCK8 or MTT assay

[2] = biological target: T1, Fibroblast growth factor receptor 1 (Homo sapiens, UniProt P11362)
Target sequence in this assay (P11362 whole entry): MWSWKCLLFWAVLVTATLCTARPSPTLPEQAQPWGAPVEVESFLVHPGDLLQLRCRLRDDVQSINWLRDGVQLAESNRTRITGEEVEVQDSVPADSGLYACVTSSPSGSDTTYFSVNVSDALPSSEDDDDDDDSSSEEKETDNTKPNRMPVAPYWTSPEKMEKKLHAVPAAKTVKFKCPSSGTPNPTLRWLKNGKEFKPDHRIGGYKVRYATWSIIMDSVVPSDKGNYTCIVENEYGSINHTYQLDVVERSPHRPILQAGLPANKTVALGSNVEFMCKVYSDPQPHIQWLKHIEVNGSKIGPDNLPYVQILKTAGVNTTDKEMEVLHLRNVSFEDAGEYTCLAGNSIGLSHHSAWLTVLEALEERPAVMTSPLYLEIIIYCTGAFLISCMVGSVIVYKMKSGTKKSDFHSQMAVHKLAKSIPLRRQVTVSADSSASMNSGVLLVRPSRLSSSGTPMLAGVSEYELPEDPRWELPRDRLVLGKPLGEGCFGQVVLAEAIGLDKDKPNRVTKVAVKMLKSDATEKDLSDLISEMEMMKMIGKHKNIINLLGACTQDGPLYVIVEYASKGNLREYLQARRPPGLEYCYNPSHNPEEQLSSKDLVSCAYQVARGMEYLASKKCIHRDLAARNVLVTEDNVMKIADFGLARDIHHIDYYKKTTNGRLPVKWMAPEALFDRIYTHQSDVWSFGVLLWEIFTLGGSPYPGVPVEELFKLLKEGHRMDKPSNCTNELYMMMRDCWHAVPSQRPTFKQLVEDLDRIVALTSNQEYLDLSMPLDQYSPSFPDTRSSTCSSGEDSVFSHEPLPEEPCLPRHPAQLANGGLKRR
Description: Inhibition of recombinant FGFR1 (unknown origin) using poly (Glu,Tyr) 4:1 as substrate after 60 mins by ELISA

[3] = biological target: Fibroblast growth factor receptor 4 (Homo sapiens, UniProt P22455); experiment: Inhibition of recombinant FGFR4 (unknown origin) using poly (Glu,Tyr) 4:1 as substrate after 60 mins by ELISA
[4] = biological target: Receptor tyrosine-protein kinase erbB-4 (Homo sapiens, UniProt Q15303); experiment: Inhibition of recombinant ERBB4 (unknown origin) using poly (Glu,Tyr) 4:1 as substrate after 60 mins by ELISA
SNU-16 [5] = experiment: Antitumor activity against FGFR2 amplified human SNU16 cells xenografted in po dosed nude mouse assessed as tumor growth inhibition administered once daily for 21 days; type: functional, organism-based
SNU-16 [6] = experiment: Antitumor activity against FGFR2 amplified human SNU16 cells xenografted in nude mouse assessed as tumor growth inhibition at 50 mg/kg, po administered once daily for 21 days relative to control; type: functional; conditions: SNU-16, po, 504 h, read-out: TGI
[7] = biological target: Proto-oncogene tyrosine-protein kinase Src (Homo sapiens, UniProt P12931); experiment: Inhibition of recombinant c-SRC (unknown origin) using poly (Glu,Tyr) 4:1 as substrate after 60 mins by ELISA
[8] = biological target: Platelet-derived growth factor receptor alpha (Homo sapiens, UniProt P16234); experiment: Inhibition of recombinant PDGFRalpha (unknown origin) using poly (Glu,Tyr) 4:1 as substrate after 60 mins by ELISA
[9] = biological target: T1, Fibroblast growth factor receptor 1; experiment: Inhibition of FGFR1 phosphorylation in human KG1 cells at 5 to 20 nM after 2 hrs by Western blot analysis; type: cell-based
Target sequence in this assay (P11362 22-822 limits assumed): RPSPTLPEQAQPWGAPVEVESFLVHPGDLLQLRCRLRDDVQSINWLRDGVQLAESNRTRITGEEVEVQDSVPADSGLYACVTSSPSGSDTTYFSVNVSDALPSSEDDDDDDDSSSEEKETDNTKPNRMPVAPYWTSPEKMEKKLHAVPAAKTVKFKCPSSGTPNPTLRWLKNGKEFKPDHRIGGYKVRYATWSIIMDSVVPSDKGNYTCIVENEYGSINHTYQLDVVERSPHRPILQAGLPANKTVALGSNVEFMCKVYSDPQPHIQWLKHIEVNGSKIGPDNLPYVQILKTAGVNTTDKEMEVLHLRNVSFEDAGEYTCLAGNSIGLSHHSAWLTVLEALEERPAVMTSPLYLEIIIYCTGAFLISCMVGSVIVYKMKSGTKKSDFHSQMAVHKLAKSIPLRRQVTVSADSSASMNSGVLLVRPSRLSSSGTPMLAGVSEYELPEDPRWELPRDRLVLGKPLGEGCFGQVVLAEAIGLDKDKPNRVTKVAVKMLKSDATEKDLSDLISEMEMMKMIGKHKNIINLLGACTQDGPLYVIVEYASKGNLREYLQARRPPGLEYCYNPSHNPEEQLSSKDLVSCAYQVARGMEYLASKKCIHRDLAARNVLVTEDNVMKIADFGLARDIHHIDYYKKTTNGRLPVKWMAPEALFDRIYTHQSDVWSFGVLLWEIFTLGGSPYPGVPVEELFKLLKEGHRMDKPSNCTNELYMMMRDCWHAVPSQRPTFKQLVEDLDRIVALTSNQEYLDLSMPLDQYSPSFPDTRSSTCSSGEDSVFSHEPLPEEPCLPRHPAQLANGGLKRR

[10] = biological target: T2, Fibroblast growth factor receptor 2 (Homo sapiens, UniProt P21802); experiment: Inhibition of FGFR2 phosphorylation in human SNU16 cells at 0.1 to 10 nM after 2 hrs by Western blot analysis; type: cell-based
Target sequence in this assay (P21802 22-821 limits assumed): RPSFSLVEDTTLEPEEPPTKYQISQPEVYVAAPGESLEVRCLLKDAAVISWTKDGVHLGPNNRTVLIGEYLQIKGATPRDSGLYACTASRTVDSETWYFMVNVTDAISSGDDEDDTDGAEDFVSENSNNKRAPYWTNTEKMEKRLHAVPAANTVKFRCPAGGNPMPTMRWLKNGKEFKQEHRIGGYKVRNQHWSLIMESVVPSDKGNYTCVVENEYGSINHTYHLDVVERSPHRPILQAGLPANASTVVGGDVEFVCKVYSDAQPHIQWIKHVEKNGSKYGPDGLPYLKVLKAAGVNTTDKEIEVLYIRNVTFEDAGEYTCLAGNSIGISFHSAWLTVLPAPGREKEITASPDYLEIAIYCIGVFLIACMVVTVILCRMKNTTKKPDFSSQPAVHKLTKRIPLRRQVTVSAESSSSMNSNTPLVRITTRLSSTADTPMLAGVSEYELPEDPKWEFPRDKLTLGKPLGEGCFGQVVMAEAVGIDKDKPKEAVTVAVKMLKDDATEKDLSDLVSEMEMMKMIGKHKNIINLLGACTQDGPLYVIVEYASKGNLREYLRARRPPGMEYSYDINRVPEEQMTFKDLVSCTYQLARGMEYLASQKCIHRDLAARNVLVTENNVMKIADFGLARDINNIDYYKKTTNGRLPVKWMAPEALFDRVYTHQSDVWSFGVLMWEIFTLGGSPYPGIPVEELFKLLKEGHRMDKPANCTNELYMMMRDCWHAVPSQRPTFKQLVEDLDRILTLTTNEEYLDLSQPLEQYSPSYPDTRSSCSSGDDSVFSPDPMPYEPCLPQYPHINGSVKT

[11] = biological target: T1, Fibroblast growth factor receptor 1; experiment: Inhibition of FGFR1 in human KG1 cells assessed as reduction in ERK phosphorylation at 5 to 20 nM after 2 hrs by Western blot analysis; type: cell-based
Target sequence in this assay (P11362 22-822 limits assumed): as the sequence (P11362 22-822 limits assumed) above

Homo sapiens = organism: Homo sapiens; experiment: Selectivity ratio of IC50 for recombinant VEGFR2 (unknown origin) to IC50 for recombinant FGFR1 (unknown origin)
[12] = biological target: Receptor tyrosine-protein kinase erbB-2 (Homo sapiens, UniProt P04626); experiment: Inhibition of recombinant ERBB2 (unknown origin) using poly (Glu,Tyr) 4:1 as substrate after 60 mins by ELISA
[13] = biological target: T2, Fibroblast growth factor receptor 2; experiment: Inhibition of FGFR2 in human SNU16 cells assessed as reduction in PLCgamma phosphorylation at 0.1 to 10 nM after 2 hrs by Western blot analysis; type: cell-based
Target sequence in this assay (P21802 22-821 limits assumed): as the sequence (P21802 22-821 limits assumed) above

[14] = biological target: Hepatocyte growth factor receptor (Homo sapiens, UniProt P08581); experiment: Inhibition of recombinant c-MET (unknown origin) using poly (Glu,Tyr) 4:1 as substrate after 60 mins by ELISA
[15] = Toxicity in nude mouse xenografted with FGFR2 amplified human SNU16 cells assessed as weight loss at 25 to 50 mg/kg, po administered once daily for 21 days relative to control; type: organism-based; conditions: in vivo, 504 h
BaF3 [16] = experiment: cells; conditions: Mus musculus, BaF3, 72 h
Description: Antiproliferative activity against mouse BAF3 cells expressing TEL-fused KDR kinase after 72 hrs by CCK8 or MTT assay

[17] = biological target: Insulin-like growth factor 1 receptor (Homo sapiens, UniProt P08069); experiment: Inhibition of recombinant IGF1R (unknown origin) using poly (Glu,Tyr) 4:1 as substrate after 60 mins by ELISA
NCI-H1581 [18] = experiment: Antitumor activity against FGFR1 amplified human NCI-H1581 cells xenografted in nude mouse assessed as tumor growth inhibition at 100 mg/kg, po administered once daily for 14 days relative to control; type: functional; conditions: 336 h, read-out: TGI
OPM-2 = experiment: cells; conditions: Homo sapiens, OPM-2, 72 h
Description: Antiproliferative activity against FGFR3 amplified human OPM2 cells after 72 hrs by CCK8 or MTT assay

[19] = biological target: Platelet-derived growth factor receptor beta (Homo sapiens, UniProt P09619); experiment: Inhibition of recombinant PDGFRbeta (unknown origin) using poly (Glu,Tyr) 4:1 as substrate after 60 mins by ELISA
[20] = biological target: ALK tyrosine kinase receptor (Homo sapiens, UniProt Q9UM73); experiment: Inhibition of recombinant ALK (unknown origin) using poly (Glu,Tyr) 4:1 as substrate after 60 mins by ELISA
[21] = Terminal half life in Sprague-Dawley rat at 10 mg/kg, po administered via gavage by HPLC-MS/MS analysis; type: ADME, organism-based; conditions: in vivo, read-out: beta t1/2 (converted)
[22] = biological target: Epidermal growth factor receptor (Homo sapiens, UniProt P00533); experiment: Inhibition of recombinant EGFR (unknown origin) using poly (Glu,Tyr) 4:1 as substrate after 60 mins by ELISA
SNU-16 [23] = experiment: cells; conditions: Homo sapiens, SNU-16, 72 h
Description: Antiproliferative activity against FGFR2 amplified human SNU16 cells after 72 hrs by CCK8 or MTT assay

[24] = biological target: T3, Fibroblast growth factor receptor 3 (Homo sapiens, UniProt P22607); experiment: Inhibition of recombinant FGFR3 (unknown origin) using poly (Glu,Tyr) 4:1 as substrate after 60 mins by ELISA
[25] = Tmax in Sprague-Dawley rat at 10 mg/kg, po administered via gavage by HPLC-MS/MS analysis; type: ADME, organism-based; conditions: in vivo
RT-112 = experiment: cells; conditions: Homo sapiens, RT-112, 72 h
Description: Antiproliferative activity against FGFR3 amplified human RT112 cells after 72 hrs by CCK8 or MTT assay

[26] = biological target: Tyrosine-protein kinase BTK (Homo sapiens, UniProt Q06187); experiment: Inhibition of recombinant BTK (unknown origin) using poly (Glu,Tyr) 4:1 as substrate after 60 mins by ELISA
[27] = biological target: Vascular endothelial growth factor receptor 2 (Homo sapiens, UniProt P35968); experiment: Inhibition of recombinant VEGFR2 (unknown origin) using poly (Glu,Tyr) 4:1 as substrate after 60 mins by ELISA
[28] = AUC in Sprague-Dawley rat at 10 mg/kg, po administered via gavage by HPLC-MS/MS analysis; type: ADME, organism-based; conditions: in vivo
Huh-7 = experiment: cells; conditions: Homo sapiens, Huh-7, 72 h
Description: Antiproliferative activity against FGF19/FGFR4 expressing human HuH7 cells after 72 hrs by CCK8 or MTT assay

[29] = biological target: T1, Fibroblast growth factor receptor 1; experiment: Irreversible inhibition of FGFR1 (unknown origin) at 100 times IC50 concentration using 5-FAM-KKSRGDYMTMQIG-CONH2 peptide as substrate preincubated for 30 mins followed 100 fold dilution with substrate and ATP and measured for 1 hr
Target sequence in this assay (P11362 22-822 limits assumed): as the sequence (P11362 22-822 limits assumed) above

[30] = biological target: Tyrosine-protein kinase ABL1 (Homo sapiens, UniProt P00519); experiment: Inhibition of recombinant ABL (unknown origin) using poly (Glu,Tyr) 4:1 as substrate after 60 mins by ELISA
[31] = biological target: T1, Fibroblast growth factor receptor 1; experiment: Inhibition of FGFR1 in human KG1 cells assessed as reduction in PLCgamma phosphorylation at 5 to 20 nM after 2 hrs by Western blot analysis; type: cell-based
Target sequence in this assay (P11362 22-822 limits assumed): as above

[32] = biological target: T3, Fibroblast growth factor receptor 3; experiment: Inhibition of FGFR3 in human UMUC14 cells assessed as reduction in ERK phosphorylation at 1 to 100 nM after 2 hrs by Western blot analysis; type: cell-based
Target sequence in this assay (P22607 23-806 limits assumed): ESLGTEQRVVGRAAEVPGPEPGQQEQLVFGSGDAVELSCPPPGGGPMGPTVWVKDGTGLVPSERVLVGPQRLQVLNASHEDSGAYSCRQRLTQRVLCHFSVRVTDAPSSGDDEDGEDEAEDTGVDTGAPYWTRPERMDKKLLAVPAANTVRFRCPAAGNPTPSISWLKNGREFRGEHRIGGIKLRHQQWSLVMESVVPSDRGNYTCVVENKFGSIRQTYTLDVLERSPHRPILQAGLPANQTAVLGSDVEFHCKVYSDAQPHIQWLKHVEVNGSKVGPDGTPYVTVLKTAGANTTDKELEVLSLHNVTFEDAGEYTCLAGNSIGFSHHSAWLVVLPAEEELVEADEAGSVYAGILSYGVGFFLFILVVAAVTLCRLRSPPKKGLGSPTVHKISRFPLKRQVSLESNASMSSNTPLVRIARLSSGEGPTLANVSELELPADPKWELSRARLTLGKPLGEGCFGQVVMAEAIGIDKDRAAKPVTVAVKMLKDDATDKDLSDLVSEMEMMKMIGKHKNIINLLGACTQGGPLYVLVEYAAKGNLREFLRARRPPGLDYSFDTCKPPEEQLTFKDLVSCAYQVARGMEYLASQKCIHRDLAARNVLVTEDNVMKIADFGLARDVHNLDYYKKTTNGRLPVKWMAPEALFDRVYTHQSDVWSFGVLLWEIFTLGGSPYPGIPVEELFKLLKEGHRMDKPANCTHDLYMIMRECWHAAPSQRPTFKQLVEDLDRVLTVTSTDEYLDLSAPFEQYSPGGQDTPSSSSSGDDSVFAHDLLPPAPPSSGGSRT

[33] = Cmax in Sprague-Dawley rat at 10 mg/kg, po administered via gavage by HPLC-MS/MS analysis; type: ADME, organism-based; parameters: dose 10 mg/kg, route oral; conditions: in vivo
[34] = biological target: T3, Fibroblast growth factor receptor 3; experiment: Inhibition of FGFR3 in human UMUC14 cells assessed as reduction in PLCgamma phosphorylation at 1 to 100 nM after 2 hrs by Western blot analysis; type: cell-based
Target sequence in this assay (P22607 23-806 limits assumed): as above

BaF3 [35] = experiment: cells; conditions: Mus musculus, BaF3, 72 h; remark: listed apart in the source
Description: Antiproliferative activity against mouse BAF3 cells expressing TEL-fused FGFR4 kinase after 72 hrs by CCK8 or MTT assay

[36] = biological target: T2, Fibroblast growth factor receptor 2; experiment: Inhibition of recombinant FGFR2 (unknown origin) using poly (Glu,Tyr) 4:1 as substrate after 60 mins by ELISA
[37] = biological target: T3, Fibroblast growth factor receptor 3; experiment: Inhibition of FGFR3 phosphorylation in human UMUC14 cells at 1 to 100 nM after 2 hrs by Western blot analysis; type: cell-based
Target sequence in this assay (P22607 23-806 limits assumed): as above

[38] = Toxicity in nude mouse xenografted with FGFR1 amplified human NCI-H1581 cells assessed as weight loss at 50 to 100 mg/kg, po administered once daily for 14 days relative to control; type: organism-based; conditions: in vivo, 336 h
Ephrin type-A receptor 2 = Ephrin type-A receptor 2 (Homo sapiens, UniProt P29317); experiment: Inhibition of recombinant EPHA2 (unknown origin) using poly (Glu,Tyr) 4:1 as substrate after 60 mins by ELISA
[39] = biological target: T2, Fibroblast growth factor receptor 2; experiment: Inhibition of FGFR2 in human SNU16 cells assessed as reduction in ERK phosphorylation at 0.1 to 10 nM after 2 hrs by Western blot analysis; type: cell-based
Target sequence in this assay (P21802 22-821 limits assumed): as the sequence (P21802 22-821 limits assumed) above

[40] = biological target: Vascular endothelial growth factor receptor 1 (Homo sapiens, UniProt P17948); experiment: Inhibition of recombinant FLT1 (unknown origin) using poly (Glu,Tyr) 4:1 as substrate after 60 mins by ELISA
NCI-H1581 [41] = experiment: Antitumor activity against FGFR1 amplified human NCI-H1581 cells xenografted in po dosed nude mouse assessed as tumor growth inhibition administered once daily for 14 days; type: functional, organism-based

Chain of Fibroblast growth factor receptor 4 (P22455 whole entry): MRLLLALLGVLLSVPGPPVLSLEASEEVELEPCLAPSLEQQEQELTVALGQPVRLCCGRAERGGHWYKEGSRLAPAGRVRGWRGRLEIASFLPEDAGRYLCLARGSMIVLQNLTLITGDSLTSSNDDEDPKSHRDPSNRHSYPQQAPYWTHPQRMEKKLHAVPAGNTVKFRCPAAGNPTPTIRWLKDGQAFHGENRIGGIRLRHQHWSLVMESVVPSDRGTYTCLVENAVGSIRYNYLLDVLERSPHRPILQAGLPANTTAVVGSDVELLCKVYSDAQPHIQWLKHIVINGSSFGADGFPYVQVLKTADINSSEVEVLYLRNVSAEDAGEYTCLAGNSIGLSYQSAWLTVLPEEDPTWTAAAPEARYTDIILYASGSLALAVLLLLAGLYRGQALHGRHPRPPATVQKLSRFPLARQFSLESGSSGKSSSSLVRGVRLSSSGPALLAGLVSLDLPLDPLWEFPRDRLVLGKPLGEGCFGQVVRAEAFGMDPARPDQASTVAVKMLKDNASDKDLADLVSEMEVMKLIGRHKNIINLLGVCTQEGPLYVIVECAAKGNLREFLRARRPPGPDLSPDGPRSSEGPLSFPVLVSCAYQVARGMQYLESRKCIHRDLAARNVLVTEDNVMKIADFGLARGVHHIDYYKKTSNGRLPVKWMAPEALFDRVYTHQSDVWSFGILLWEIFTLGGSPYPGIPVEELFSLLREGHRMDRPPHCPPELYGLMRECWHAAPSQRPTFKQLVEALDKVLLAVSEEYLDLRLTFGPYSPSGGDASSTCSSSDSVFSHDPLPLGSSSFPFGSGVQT
Chain of Tyrosine-protein kinase BTK (Q06187 whole entry): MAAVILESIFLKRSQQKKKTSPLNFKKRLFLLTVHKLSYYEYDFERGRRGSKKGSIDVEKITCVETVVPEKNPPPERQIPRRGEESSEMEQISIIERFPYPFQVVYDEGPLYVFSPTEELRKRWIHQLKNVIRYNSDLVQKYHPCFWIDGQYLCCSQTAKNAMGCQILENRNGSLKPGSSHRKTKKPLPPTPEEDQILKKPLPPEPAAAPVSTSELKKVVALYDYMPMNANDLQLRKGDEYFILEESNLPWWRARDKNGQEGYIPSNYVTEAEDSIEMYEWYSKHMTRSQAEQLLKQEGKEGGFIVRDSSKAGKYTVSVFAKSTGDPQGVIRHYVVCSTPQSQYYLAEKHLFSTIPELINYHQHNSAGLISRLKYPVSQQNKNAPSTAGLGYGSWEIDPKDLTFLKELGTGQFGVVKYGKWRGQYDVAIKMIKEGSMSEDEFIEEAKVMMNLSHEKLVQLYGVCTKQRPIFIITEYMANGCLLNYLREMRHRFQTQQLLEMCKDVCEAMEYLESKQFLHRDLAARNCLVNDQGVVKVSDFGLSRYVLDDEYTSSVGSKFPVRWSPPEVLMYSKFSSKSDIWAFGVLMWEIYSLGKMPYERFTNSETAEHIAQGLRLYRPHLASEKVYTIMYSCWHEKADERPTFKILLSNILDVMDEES

IC50 (NCI-H1581 [1]): < 0.0003 µM
Compound: C=CC(=O)N1CC(n2cc(-c3cc4cccc(OC)c4s3)c3c(N)ncnc32)C1

IC50 (NCI-H1581 [1]): < 0.0003 µM
Compound: C=C(CN(C)C)C(=O)N1CCC(n2cc(-c3cc4cc(C)cc(OC)c4s3)c3c(N)ncnc32)C1 (centres undefined)

IC50 (NCI-H1581 [1]): > 1 µM | IC50 [2]: < 0.0003 µM
Compound: C=CS(=O)(=O)N1CC(n2cc(-c3cc4cc(C)cc(OC)c4s3)c3c(N)ncnc32)C1

IC50 [2]: > 0.1 µM | IC50 [3]: > 0.1 µM
Compound: C=CC(=O)N1CCC(n2cc(-c3cc4cc(C)cc(OC)c4s3)c3c(NC)ncnc32)C1 (centres undefined)

IC50 [4]: > 1 µM | IC50 [7]: > 1 µM | IC50 [8]: > 1 µM | inhibition [9]: Active | inhibition [10]: Active | inhibition [11]: Active | Ratio IC50 (Homo sapiens): > 350 | IC50 (NCI-H1581 [1]): 0.0003 to 0.0005 µM | IC50 [12]: > 1 µM | inhibition [13]: Active | IC50 [14]: > 1 µM | IC50 (BaF3 [16]): 0.293 µM | IC50 [17]: > 1 µM | IC50 (OPM-2): < 0.0005 µM | IC50 [19]: > 1 µM | IC50 [20]: > 1 µM | half-life [21]: 1.73 h | IC50 [2]: < 0.0003 µM | IC50 [22]: > 1 µM | IC50 (SNU-16 [23]): < 0.0001 µM | IC50 [24]: 0.0094 µM | Tmax [25]: 2.75 h | IC50 (RT-112): < 0.0005 µM | IC50 [26]: > 1 µM | IC50 [27]: 0.113 µM | AUC [28]: 0.277 µg·h/mL | IC50 (Huh-7): < 0.0015 µM | inhibition [29]: Active | IC50 [30]: > 1 µM | inhibition [31]: Active | inhibition [32]: Active | Cmax [33]: 0.0777 µg/mL | inhibition [34]: Active | IC50 (BaF3 [35]): < 0.0046 µM | IC50 [36]: 0.0008 µM | inhibition [37]: Active | IC50 (Ephrin type-A receptor 2): > 1 µM | inhibition [39]: Active | IC50 [40]: > 1 µM | IC50 [3]: 0.0053 µM
Compound: C=CC(=O)N1CC[C@H](n2cc(-c3cc4cc(C)cc(OC)c4s3)c3c(N)ncnc32)C1
TGI (SNU-16 [5]): Dose-dependent effect | inhibition in vivo at 50 mg/kg (SNU-16 [6]): 85.8% | Activity [15]: Non-Toxic | inhibition in vivo at 100 mg/kg (NCI-H1581 [18]): 98.9% | Activity [38]: Non-Toxic | TGI (NCI-H1581 [41]): Dose-dependent effect

IC50 (NCI-H1581 [1]): < 0.0003 µM
Compound: C=CC(=O)N1CCC(n2cc(-c3cc4cccc(OC)c4s3)c3c(N)ncnc32)C1 (centres undefined)

IC50 (NCI-H1581 [1]): 0.0902 µM
Compound: C=CC(=O)N1CCC(n2cc(-c3cc(OC)cc(OC)c3)c3c(N)ncnc32)C1 (centres undefined)

IC50 (NCI-H1581 [1]): 0.207 µM
Compound: C=CC(=O)N1CC(n2cc(-c3cc4cc(C)cc(OC)c4s3)c3c(N)nc(Cl)nc32)C1

IC50 (NCI-H1581 [1]): < 0.0003 µM
Compound: C=CC(=O)N1CCCC1Cn1cc(-c2cc3cc(C)cc(OC)c3s2)c2c(N)ncnc21 (centres undefined)

IC50 (NCI-H1581 [1]): < 0.0003 µM | IC50 [2]: < 0.0003 µM | IC50 [3]: 0.0062 µM
Compound: C=CC(=O)N1CCC(n2cc(-c3cc4cc(C)cc(OC)c4s3)c3c(N)ncnc32)C1 (centres undefined)

IC50 (NCI-H1581 [1]): > 1 µM
Compound: C#CC(=O)N1CCC(n2cc(-c3cc4cc(C)cc(OC)c4s3)c3c(N)ncnc32)C1 (centres undefined)

IC50 [3]: > 1 µM
Compound: C=CC(=O)N1CC(n2cc(-c3cc4cc(C)cc(OC)c4o3)c3c(N)ncnc32)C1

IC50 (NCI-H1581 [1]): 0.0257 µM
Compound: C=CC(=O)N1CCC(n2cc(-c3cc4cc(C)cc(OC)c4s3)c3c(N)nc(N)nc32)C1 (centres undefined)

IC50 (NCI-H1581 [1]): 0.254 µM
Compound: C=CC(=O)N1CCC(n2cc(-c3cc4cc(C)cc(OC)c4s3)c3c(N)nc(C)nc32)C1 (centres undefined)

IC50 (NCI-H1581 [1]): 0.0159 µM
Compound: C=CC(=O)N1CC(n2cc(-c3cc4c(OC)ccc(OC)c4s3)c3c(N)ncnc32)C1
